target: T1, Human Factor XIIa (hFXIIa) (Homo sapiens, UniProt P00748); assay: Determination of Human Factor XIIa (hFXIIa) inhibition, fluorogenic substrate IC50 assay; type: biochemical; conditions: fluorogenic substrate H-DPro-Phe-Arg-AFC at Km, 25° C., read-out: Human FXIIa IC50
T1 construct: purchased Enzyme Research Laboratories
T1 sequence (P00748 373-615 limits assumed): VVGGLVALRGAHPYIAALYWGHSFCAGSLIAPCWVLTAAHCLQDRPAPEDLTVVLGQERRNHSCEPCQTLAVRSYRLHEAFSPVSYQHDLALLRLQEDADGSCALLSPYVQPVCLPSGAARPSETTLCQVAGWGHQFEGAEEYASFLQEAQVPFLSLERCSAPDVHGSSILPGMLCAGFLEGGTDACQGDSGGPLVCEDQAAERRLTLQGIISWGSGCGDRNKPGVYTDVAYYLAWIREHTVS
T1 sequence (P00748 20-372 partner limits assumed): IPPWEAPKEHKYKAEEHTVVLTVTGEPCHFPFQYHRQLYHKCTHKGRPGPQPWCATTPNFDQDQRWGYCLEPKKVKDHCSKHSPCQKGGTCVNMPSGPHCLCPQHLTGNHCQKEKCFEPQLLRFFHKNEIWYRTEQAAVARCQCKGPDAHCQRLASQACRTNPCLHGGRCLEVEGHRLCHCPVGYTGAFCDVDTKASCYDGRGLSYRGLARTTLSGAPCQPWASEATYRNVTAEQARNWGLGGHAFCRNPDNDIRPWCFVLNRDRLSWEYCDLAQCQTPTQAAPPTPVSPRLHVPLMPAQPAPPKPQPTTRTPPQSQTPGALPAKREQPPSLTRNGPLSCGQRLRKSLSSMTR
Procedure: Determination of Human Factor XIIa (hFXIIa) inhibition
The Km for the cleavage of the substrate by hFXIIa was determined by standard transformation of the Michaelis-Menten equation, with subsequent inhibition assays performed at substrate Km concentration.

Compared with `CCNC(=O)c1nn(-c2cccc(Cl)c2)c2c1CCN(c1cccc(N3C(=O)C[C@H]4C[C@H]43)c1)C2=O` (single isomer, unassigned) [Example 1407, 1-(3-Chlorophenyl)-N-ethyl-7-oxo-6-(3-((1R*,5R*)-3-oxo-2-azabicyclo[3.1.0]hexan-2-yl)phenyl)-4,5,6,7-tetrahydro-1H-pyrazolo[3,4-c]pyridine-3-carboxamide], `CN1CCc2ccc(N3CCc4c(C(=O)NCC5CCO5)nn(-c5cccc(Cl)c5)c4C3=O)cc2C1` (stereo not drawn) [Example 1045, 1-(3-chlorophenyl)-6-(2-methyl-1,2,3,4-tetrahydroisoquinolin-7-yl)-N-(oxetan-2-ylmethyl)-7-oxo-4,5,6,7-tetrahydro-1H-pyrazolo[3,4-c]pyridine-3-carboxamide] is lower in IC50: 10000 to 40000 nM for the first, 300 to 1000 nM for the second. The second is the more potent here.

First: CN1CCC(CN2CCc3c(C(=O)NCc4ccccc4)nn(-c4cccc(Cl)c4)c3C2=O)CC1 [Example 1016, N-Benzyl-1-(3-chlorophenyl)-6-((1-methylpiperidin-4-yl)methyl)-7-oxo-4,5,6,7-tetrahydro-1H-pyrazolo[3,4-c]pyridine-3-carboxamide]
Second: CN1Cc2ccc(N3CCc4c(C(=O)NCc5ccccc5)nn(-c5cccc(Cl)c5)c4C3=O)cc2C1 [Example 1028, N-benzyl-1-(3-chlorophenyl)-6-(2-methylisoindolin-5-yl)-7-oxo-4,5,6,7-tetrahydro-1H-pyrazolo[3,4-c]pyridine-3-carboxamide]
The IC50 of the first is higher: 10000 to 40000 nM for the first, 300 to 1000 nM for the second. The second is the more potent here.

First: O=C(NCc1ccccc1)c1nn(-c2cccc(Cl)c2)c2c1CCN(c1cccc(CN3CCCC3)c1)C2=O [Example 1017, N-benzyl-1-(3-chlorophenyl)-7-oxo-6-(3-(pyrrolidin-1-ylmethyl)phenyl)-4,5,6,7-tetrahydro-1H-pyrazolo[3,4-c]pyridine-3-carboxamide]
Second: O=C(NCc1ccccc1)c1nn(-c2cccc(Cl)c2)c2c1CCN(c1cccc(CN3CCOCC3)c1)C2=O [Example 1018, N-benzyl-1-(3-chlorophenyl)-6-(3-(morpholinomethyl)phenyl)-7-oxo-4,5,6,7-tetrahydro-1H-pyrazolo[3,4-c]pyridine-3-carboxamide]
The IC50 of the first is lower: 300 to 1000 nM for the first, 1000 to 3000 nM for the second. The first is the more potent here.

First: O=C(NCc1ccccc1)c1nn(-c2cccc(Cl)c2)c2c1CCN(c1ccc3c(c1)CN(CC1CCCC1)CC3)C2=O [Example 1020, N-benzyl-1-(3-chlorophenyl)-6-(2-(cyclopentylmethyl)-1,2,3,4-tetrahydroisoquinolin-7-yl)-7-oxo-4,5,6,7-tetrahydro-1H-pyrazolo[3,4-c]pyridine-3-carboxamide]
Second: CCCN1CCc2ccc(N3CCc4c(C(=O)NCC5CC5)nn(-c5cccc(Cl)c5)c4C3=O)cc2C1 [Example 1052, 1-(3-chlorophenyl)-N-(cyclopropylmethyl)-7-oxo-6-(2-propyl-1,2,3,4-tetrahydroisoquinolin-7-yl)-4,5,6,7-tetrahydro-1H-pyrazolo[3,4-c]pyridine-3-carboxamide]
The IC50 of the first is higher: 300 to 1000 nM for the first, 100 to 300 nM for the second.

First: NC(=O)CN1CCc2ccc(N3CCc4c(C(=O)NCC5CC5)nn(-c5cccc(Cl)c5)c4C3=O)cc2C1 [Example 1033, 6-(2-(2-amino-2-oxoethyl)-1,2,3,4-tetrahydroisoquinolin-7-yl)-1-(3-chlorophenyl)-N-(cyclopropylmethyl)-7-oxo-4,5,6,7-tetrahydro-1H-pyrazolo[3,4-c]pyridine-3-carboxamide]
Second: COCCCN1CCc2ccc(N3CCc4c(C(=O)NCC5CC5)nn(-c5cccc(Cl)c5)c4C3=O)cc2C1 [Example 1053, 1-(3-chlorophenyl)-N-(cyclopropylmethyl)-6-(2-(3-methoxypropyl)-1,2,3,4-tetrahydroisoquinolin-7-yl)-7-oxo-4,5,6,7-tetrahydro-1H-pyrazolo[3,4-c]pyridine-3-carboxamide]
The IC50 of the first is higher: 1000 to 3000 nM for the first, 100 to 300 nM for the second.

Compared with `CN1CCc2ccc(N3CCc4c(C(=O)NCC5CC5)nn(-c5cccc(Cl)c5)c4C3=O)nc2C1` [Example 1034, 1-(3-Chlorophenyl)-N-(cyclopropylmethyl)-6-(7-methyl-5,6,7,8-tetrahydro-1,7-naphthyridin-2-yl)-7-oxo-4,5,6,7-tetrahydro-1H-pyrazolo[3,4-c]pyridine-3-carboxamide], `CN1CCc2ncc(N3CCc4c(C(=O)NCC5CC5)nn(-c5cccc(Cl)c5)c4C3=O)cc2C1` [Example 1040, 1-(3-Chlorophenyl)-N-(cyclopropylmethyl)-6-(6-methyl-5,6,7,8-tetrahydro-1,6-naphthyridin-3-yl)-7-oxo-4,5,6,7-tetrahydro-1H-pyrazolo[3,4-c]pyridine-3-carboxamide] is higher in IC50: 300 to 1000 nM for the first, 1000 to 3000 nM for the second. The first is the more potent here.

`CC1CCN(Cc2cccc(N3CCc4c(C(=O)NCc5ccccc5)nn(-c5cccc(Cl)c5)c4C3=O)c2)C1` (stereo not drawn) [Example 1038, N-benzyl-1-(3-chlorophenyl)-6-(3-((3-methylpyrrolidin-1-yl)methyl)phenyl)-7-oxo-4,5,6,7-tetrahydro-1H-pyrazolo[3,4-c]pyridine-3-carboxamide] and `CC1CCCN1Cc1cccc(N2CCc3c(C(=O)NCc4ccccc4)nn(-c4cccc(Cl)c4)c3C2=O)c1` (stereo not drawn) [Example 1039, N-benzyl-1-(3-chlorophenyl)-6-(3-((2-methylpyrrolidin-1-yl)methyl)phenyl)-7-oxo-4,5,6,7-tetrahydro-1H-pyrazolo[3,4-c]pyridine-3-carboxamide] fall in the same range of IC50: 300 to 1000 nM for the first, 300 to 1000 nM for the second.

`CN1CCc2ccc(N3CCc4c(C(=O)NC5COC5)nn(-c5cccc(Cl)c5)c4C3=O)cc2C1` [Example 1041, 1-(3-chlorophenyl)-6-(2-methyl-1,2,3,4-tetrahydroisoquinolin-7-yl)-N-(oxetan-3-yl)-7-oxo-4,5,6,7-tetrahydro-1H-pyrazolo[3,4-c]pyridine-3-carboxamide] and `CN1CCc2ccc(N3CCc4c(C(=O)NC5CCOC5)nn(-c5cccc(Cl)c5)c4C3=O)cc2C1` (stereo not drawn) [Example 1042, 1-(3-chlorophenyl)-6-(2-methyl-1,2,3,4-tetrahydroisoquinolin-7-yl)-7-oxo-N-(tetrahydrofuran-3-yl)-4,5,6,7-tetrahydro-1H-pyrazolo[3,4-c]pyridine-3-carboxamide] fall in the same range of IC50: 300 to 1000 nM for the first, 300 to 1000 nM for the second.

`CN1CCc2ccc(N3CCc4c(C(=O)NCC56CC(CO)(CCO5)C6)nn(-c5cccc(Cl)c5)c4C3=O)cc2C1` [Example 1046, 1-(3-chlorophenyl)-N-((5-(hydroxymethyl)-2-oxabicyclo[3.1.1]heptan-1-yl)methyl)-6-(2-methyl-1,2,3,4-tetrahydroisoquinolin-7-yl)-7-oxo-4,5,6,7-tetrahydro-1H-pyrazolo[3,4-c]pyridine-3-carboxamide] and `CN1CCc2ccc(N3CCc4c(C(=O)NCC56COC(CO)(C5)C6)nn(-c5cccc(Cl)c5)c4C3=O)cc2C1` [Example 1050, 1-(3-chlorophenyl)-N-((1-(hydroxymethyl)-2-oxabicyclo[2.1.1]hexan-4-yl)methyl)-6-(2-methyl-1,2,3,4-tetrahydroisoquinolin-7-yl)-7-oxo-4,5,6,7-tetrahydro-1H-pyrazolo[3,4-c]pyridine-3-carboxamide] fall in the same range of IC50: 300 to 1000 nM for the first, 300 to 1000 nM for the second.

First: CN1CCc2ccc(N3CCc4c(C(=O)NCC5COC5)nn(-c5cccc(Cl)c5)c4C3=O)cc2C1 [Example 1047, 1-(3-chlorophenyl)-6-(2-methyl-1,2,3,4-tetrahydroisoquinolin-7-yl)-N-(oxetan-3-ylmethyl)-7-oxo-4,5,6,7-tetrahydro-1H-pyrazolo[3,4-c]pyridine-3-carboxamide]
Second: CN1CCc2ccc(N3CCc4c(C(=O)NCC5(CO)CCC5)nn(-c5cccc(Cl)c5)c4C3=O)cc2C1 [Example 1049, 1-(3-chlorophenyl)-N-((1-(hydroxymethyl)cyclobutyl)methyl)-6-(2-methyl-1,2,3,4-tetrahydroisoquinolin-7-yl)-7-oxo-4,5,6,7-tetrahydro-1H-pyrazolo[3,4-c]pyridine-3-carboxamide]
The IC50 of the first is higher: 300 to 1000 nM for the first, 100 to 300 nM for the second.

First: Cc1cc(N2CCc3c(C(=O)NCC4CC4)nn(-c4cccc(Cl)c4)c3C2=O)cc2c1CCN(C)C2 [Example 1048, 1-(3-Chlorophenyl)-N-(cyclopropylmethyl)-6-(2,5-dimethyl-1,2,3,4-tetrahydroisoquinolin-7-yl)-7-oxo-4,5,6,7-tetrahydro-1H-pyrazolo[3,4-c]pyridine-3-carboxamide]
Second: CCN1CCc2cc(C)c(N3CCc4c(C(=O)NCC5CC5)nn(-c5cccc(Cl)c5)c4C3=O)cc2C1 [Example 1054, 1-(3-Chlorophenyl)-N-(cyclopropylmethyl)-6-(2-ethyl-6-methyl-1,2,3,4-tetrahydroisoquinolin-7-yl)-7-oxo-4,5,6,7-tetrahydro-1H-pyrazolo[3,4-c]pyridine-3-carboxamide]
The IC50 of the first is higher: 300 to 1000 nM for the first, 100 to 300 nM for the second.

`CCN1CCc2cnc(N3CCc4c(C(=O)NCC5CC5)nn(-c5cccc(Cl)c5)c4C3=O)nc2C1` [Example 1056, 1-(3-Chlorophenyl)-N-(cyclopropylmethyl)-6-(7-ethyl-5,6,7,8-tetrahydropyrido[3,4-d]pyrimidin-2-yl)-7] and `CN1CCc2ccc(N3CCc4c(C(=O)NC5CCNC(=O)C5)nn(-c5cccc(Cl)c5)c4C3=O)cc2C1` (stereo not drawn) [Example 1057, 1-(3-chlorophenyl)-6-(2-methyl-1,2,3,4-tetrahydroisoquinolin-7-yl)-7-oxo-N-(2-oxopiperidin-4-yl)-4,5,6,7-tetrahydro-1H-pyrazolo[3,4-c]pyridine-3-carboxamide] fall in the same range of IC50: 300 to 1000 nM for the first, 300 to 1000 nM for the second.

— patent US20260132132A1, “3A,4,5,6-TETRAHYDRO-1 H-PYRAZOLO[3,4-C]PYRIDIN-7(7AH)-ONE DERIVATIVES AS FACTOR XIIA INHIBITORS” (KALVISTA PHARMACEUTICALS LIMITED, priority 2022, published 2026)
